Holding throughout (format): cell-based
One data set relates to HBsAg. Briefly: Single agent anti-HBV activity, HBsAg in supernatant by ELISA, HepG2.2.15 cells. The conditions noted are these: Hepatitis B virus, HepG2.2.15, 192 h, read-out: HBsAg EC50. The procedure: (§1) Cell line: HepG2.2.15 cells are constructed and provided by WuXi AppTec. The cell culture medium is DMEM/F12 medium supplemented with 2% fetal bovine serum, 2 mM glutamine, 1×non-essential amino acids, 100 U/mL penicillin and 100 µg/mL streptomycin.
(§2) 2.1.1 On the first day, HepG2.2.15 cells were seeded into a 96-well cell culture plate at a density of 60,000 cells/well, and then the cells were cultured overnight at 5% CO2 and 37° C. On the second day, the compound 1 and the compound of formula (IIb) and the compound of formula (IIIb) were diluted and added to a 96-well plate. Each combination was a three-fold plate. The cells were cultured under 5% CO2 and 37° C. for 3 days. On the 5th day, a new culture medium containing the compound was replaced, and the supernatant was collected on the 8th day. The HBsAg in the supernatant was detected by ELISA, and the DNA in the supernatant was extracted at the same time, and the content of HBV DNA in the supernatant was detected by quantitative PCR. After collecting the cell supernatant, add CellTiter-Glo to detect cell viability.

The test system of data set [1] is HepG2.2.15 cells. Nature of the data set: Cytotoxicity of the compounds in combination, CellTiter Glo. On the procedure:
as §1
2.2.1 On the first day, HepG2.2.15 cells were seeded into a 96-well cell culture plate at a density of 60,000 cells/well, and then the cells were cultured overnight at 5% CO2 and 37° C. On the second day, different concentrations of compounds were added to treat the cells. Compounds were diluted in gradients, 7×7 concentration combinations, and 3 replicate plates were tested in parallel. The compound concentration tested for joint activity is based on the EC50 value of each compound. The 7 concentration gradients are approximately: 2×, 1×, ½×, ¼×, ⅛×, 1/16× and 1/32×EC50. The compound concentration of the combined activity test experiment is shown in Table 8, and the combination drug arrangement is shown in Table 9. On the 5th day, replace the fresh culture medium containing the compound. On the 8th day, the culture supernatant was collected, DNA was extracted, and the content of HBV DNA was detected by quantitative PCR. At the same time, CellTiter Glo reagent was used to detect cell viability and MacSynergy software was used to analyze the combined effect of the two drugs.

A further data set relates to HBV. Nature of the data set: Single agent anti-HBV activity, HBV DNA in supernatant by quantitative PCR, HepG2.2.15 cells. Conditions: Hepatitis B virus, 192 h, day 8. On the procedure:
as §1, §2

Data set [2] is described as follows: Single agent cytotoxicity, CellTiter-Glo. Conditions: human, HepG2.2.15 cells. On the procedure:
as §1, §2

For data set [3], the system named is HepG2.2.15 cells. Briefly: CellTiter-Glo cytotoxicity of compound 1 / TDF combination. On the procedure: 1.1 Day 1, HepG2.2.15 cells were seeded into a 96-well cell culture plate at a density of 40,000 cells/well, and then the cells were cultured overnight at 5% CO2 and 37° C.
1.2 Day 2, the compound 1 and TDF were combined with 7 different concentrations (selected about 8×, 4×, 2×, 1×, 0.5×, 0.25×, 0.125×EC50 concentration gradient) for orthogonal proportioning, and added to 96-well plate, each combination is 3 double plates, and the final concentration of DMSO is 0.5%.
1.3 Day 5, the cell supernatant was discarded, a fresh medium containing the compound was added, and the cells were cultured under 5% CO2, 37° C. for 3 days. On the 8th day, the supernatant from the cell plate treated with the compound was extracted according to the QIAamp 96 DNA Blood Kit (12) instruction.
MacSynegy software (Prichard et al., 1990) was used to process the HBV DNA copy number test data and analyze the effect parameters of compound 1 and TDF in combination. The CellTiter-Glo kit was used to detect the cytotoxicity of the compounds to HepG2.2.15 cells. According to the kit instructions, use a multifunctional microplate reader to detect the chemiluminescence intensity (RLU) of each cell well.

The values below come from patent US12569500B2, “Combination comprising tricycle compound and use thereof in preparation of medicament for treating HBV” (FUJIAN AKEYLINK BIOTECHNOLOGY CO., LTD., priority 2020, dated 2026).

Where a name gives a salt, the structure may show the parent alone.

With `COCCCOc1cc2c(cc1OC)-c1cc(=O)c(C(=O)O)cn1[C@H](c1cccs1)O2` [Compound of formula (IIIb)], the EC50 in the data set on HBsAg was found to be 0.91 nM; in the data set on HBV, 0.78 nM. Further, the “average cell viability percentage” value in the data set with HepG2.2.15 cells [1] (Compound 1 0 nM + formula (IIIb) 0.01875 nM) is reported as 103.45%; in the data set with HepG2.2.15 cells [1] (Compound 1 0 nM + formula (IIIb) 0.0375 nM) it was 103.81%; in the data set on HepG2.2.15 cells [1] (Compound 1 0 nM + formula (IIIb) 0.075 nM) it was 105.64%; in the data set on HepG2.2.15 cells [1] (Compound 1 0 nM + formula (IIIb) 0.15 nM) it was 105.68%; in the data set on HepG2.2.15 cells [1] (Compound 1 0 nM + formula (IIIb) 0.3 nM) it was 103.14%; with HepG2.2.15 cells [1] (Compound 1 0 nM + formula (IIIb) 0.6 nM) it was 103.50%. In addition, the “average cell viability percentage” value in the data set on HepG2.2.15 cells [1] (Compound 1 0 nM + formula (IIIb) 1.2 nM) was 112.02%. The CC50 at 6 days in data set [2] was above 50 nM.

For the molecule `COCCCOc1cc2c(cc1OC)-c1cc(=O)c(C(=O)O)cn1[C@H](C(C)(C)C)CO2` [Compound of formula (IIb)], the EC50 with HBsAg was 4.9 nM; with HBV, 1.52 nM. The “average cell viability percentage” value in the data set on HepG2.2.15 cells [1] (Compound 1 0 nM + formula (IIb) 0.09375 nM) was determined as 101.23%; with HepG2.2.15 cells [1] (Compound 1 0 nM + formula (IIb) 0.1875 nM) it was 101.98%; in the data set on HepG2.2.15 cells [1] (Compound 1 0 nM + formula (IIb) 0.375 nM), 102.39%; with HepG2.2.15 cells [1] (Compound 1 0 nM + formula (IIb) 0.75 nM), 105.36%; with HepG2.2.15 cells [1] (Compound 1 0 nM + formula (IIb) 1.5 nM), 104.15%; with HepG2.2.15 cells [1] (Compound 1 0 nM + formula (IIb) 3 nM) it was 102.61%. In the data set on HepG2.2.15 cells [1] (Compound 1 0 nM + formula (IIb) 6 nM), the “average cell viability percentage” value was determined as 111.27%. Moreover, the CC50 at 6 days in data set [2] is above 1000 nM.

For `CC(C)OC(=O)OCOP(=O)(CO[C@H](C)Cn1cnc2c(N)ncnc21)OCOC(=O)OC(C)C` [TDF, tenofovir disoproxil fumarate, reference compound], the “average cell viability percentage” value in the data set with HepG2.2.15 cells [3] (Compound 1 0 nM + TDF 1 nM) came out at 103.1%; in the data set with HepG2.2.15 cells [3] (Compound 1 0 nM + TDF 2 nM), 101.1%; with HepG2.2.15 cells [3] (Compound 1 0 nM + TDF 4 nM), 103.8%; with HepG2.2.15 cells [3] (Compound 1 0 nM + TDF 8 nM), 116.6%; in the data set on HepG2.2.15 cells [3] (Compound 1 0 nM + TDF 16 nM) it was 111.4%; in the data set on HepG2.2.15 cells [3] (Compound 1 0 nM + TDF 32 nM), 111 ± 7.3%. Moreover, the “average cell viability percentage” value in the data set with HepG2.2.15 cells [3] (Compound 1 0 nM + TDF 64 nM) was 127 ± 14%.
